What was measured:
Test in all cases: KINOMEscan competition binding
Settings in all cases: compound 1.0 µM
AAK1 (human) = AAK1 (human) (UniProt Q2M2I8)
ANKK1 (human) = ANKK1 (human) (UniProt Q8NFD2)
AURKB (human) = AURKB (human) (UniProt Q96GD4)
BLK (human) = BLK (human) (UniProt P51451)
CDK14 (human) = CDK14 (human) (UniProt O94921)
CDK3 (human) = CDK3 (human) (UniProt Q00526)
CDK4 CCND3 (human) = CDK4 CCND3 (human) (UniProt P11802+P30281)
CDK8 (human) = CDK8 (human) (UniProt P49336)
CLK3 (human) = CLK3 (human) (UniProt P49761)
CSK (human) = CSK (human) (UniProt P41240)
EGFR (human) = EGFR (human) (UniProt P00533)
EPHB4 (human) = EPHB4 (human) (UniProt P54760)
ERBB3 (human) = ERBB3 (human) (UniProt P21860)
ERBB4 (human) = ERBB4 (human) (UniProt Q15303)
HUNK (human) = HUNK (human) (UniProt P57058)
ICK (human) = ICK (human) (UniProt Q9UPZ9)
IRAK3 (human) = IRAK3 (human) (UniProt Q9Y616)
KDR (human) = KDR (human) (UniProt P35968)
[1] = system: KIT (human), P10721 [V559D/V654A]
MAP2K3 (human) = MAP2K3 (human) (UniProt P46734)
MAP2K7 (human) = MAP2K7 (human) (UniProt O14733)
MAP3K10 (human) = MAP3K10 (human) (UniProt Q02779)
MAP3K13 (human) = MAP3K13 (human) (UniProt O43283)
MAP4K4 (human) = MAP4K4 (human) (UniProt O95819)
MAPK4 (human) = MAPK4 (human) (UniProt P31152)
MARK2 (human) = MARK2 (human) (UniProt Q7KZI7)
MET (human) = MET (human) (UniProt P08581)
NEK5 (human) = NEK5 (human) (UniProt Q6P3R8)
NIM1 (human) = NIM1 (human) (UniProt Q8IY84)
NTRK3 (human) = NTRK3 (human) (UniProt Q16288)
PDGFRA (human) = PDGFRA (human) (UniProt P16234)
PDPK1 (human) = PDPK1 (human) (UniProt O15530)
PIK3CB (human) = PIK3CB (human) (UniProt P42338)
PIK3CD (human) = PIK3CD (human) (UniProt O00329)
PIP4K2C (human) = PIP4K2C (human) (UniProt Q8TBX8)
PKMYT1 (human) = PKMYT1 (human) (UniProt Q99640)
PLK2 (human) = PLK2 (human) (UniProt Q9NYY3)
PRKACB (human) = PRKACB (human) (UniProt P22694)
PRKCQ (human) = PRKCQ (human) (UniProt Q04759)
PRKX (human) = PRKX (human) (UniProt P51817)
RPS6KA4 KD2 (human) = RPS6KA4 KD2 (human) (UniProt O75676)
STK24 (human) = STK24 (human) (UniProt Q9Y6E0)
TXK (human) = TXK (human) (UniProt P42681)

Sequence of PLK2 (human) (Q9NYY3 whole entry, looked up): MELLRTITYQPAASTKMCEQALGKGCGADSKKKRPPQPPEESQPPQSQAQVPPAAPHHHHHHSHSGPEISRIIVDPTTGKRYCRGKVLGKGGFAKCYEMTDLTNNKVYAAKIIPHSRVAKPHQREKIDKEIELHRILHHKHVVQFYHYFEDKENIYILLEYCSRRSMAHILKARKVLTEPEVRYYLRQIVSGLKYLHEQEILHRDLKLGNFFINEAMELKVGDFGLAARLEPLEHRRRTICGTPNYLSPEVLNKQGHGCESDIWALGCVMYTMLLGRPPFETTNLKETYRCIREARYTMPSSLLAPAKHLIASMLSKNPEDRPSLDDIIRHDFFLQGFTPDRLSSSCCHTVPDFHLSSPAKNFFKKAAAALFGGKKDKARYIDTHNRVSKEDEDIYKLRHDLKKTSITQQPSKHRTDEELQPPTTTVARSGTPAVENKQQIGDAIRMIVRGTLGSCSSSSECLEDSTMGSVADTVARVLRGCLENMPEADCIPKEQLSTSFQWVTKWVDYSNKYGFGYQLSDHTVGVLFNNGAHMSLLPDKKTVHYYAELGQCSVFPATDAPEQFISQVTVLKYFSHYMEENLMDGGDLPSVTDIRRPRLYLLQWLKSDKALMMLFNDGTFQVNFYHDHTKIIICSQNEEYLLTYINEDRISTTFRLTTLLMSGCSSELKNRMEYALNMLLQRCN
Sequence of MAP3K13 (human) (O43283 whole entry, looked up): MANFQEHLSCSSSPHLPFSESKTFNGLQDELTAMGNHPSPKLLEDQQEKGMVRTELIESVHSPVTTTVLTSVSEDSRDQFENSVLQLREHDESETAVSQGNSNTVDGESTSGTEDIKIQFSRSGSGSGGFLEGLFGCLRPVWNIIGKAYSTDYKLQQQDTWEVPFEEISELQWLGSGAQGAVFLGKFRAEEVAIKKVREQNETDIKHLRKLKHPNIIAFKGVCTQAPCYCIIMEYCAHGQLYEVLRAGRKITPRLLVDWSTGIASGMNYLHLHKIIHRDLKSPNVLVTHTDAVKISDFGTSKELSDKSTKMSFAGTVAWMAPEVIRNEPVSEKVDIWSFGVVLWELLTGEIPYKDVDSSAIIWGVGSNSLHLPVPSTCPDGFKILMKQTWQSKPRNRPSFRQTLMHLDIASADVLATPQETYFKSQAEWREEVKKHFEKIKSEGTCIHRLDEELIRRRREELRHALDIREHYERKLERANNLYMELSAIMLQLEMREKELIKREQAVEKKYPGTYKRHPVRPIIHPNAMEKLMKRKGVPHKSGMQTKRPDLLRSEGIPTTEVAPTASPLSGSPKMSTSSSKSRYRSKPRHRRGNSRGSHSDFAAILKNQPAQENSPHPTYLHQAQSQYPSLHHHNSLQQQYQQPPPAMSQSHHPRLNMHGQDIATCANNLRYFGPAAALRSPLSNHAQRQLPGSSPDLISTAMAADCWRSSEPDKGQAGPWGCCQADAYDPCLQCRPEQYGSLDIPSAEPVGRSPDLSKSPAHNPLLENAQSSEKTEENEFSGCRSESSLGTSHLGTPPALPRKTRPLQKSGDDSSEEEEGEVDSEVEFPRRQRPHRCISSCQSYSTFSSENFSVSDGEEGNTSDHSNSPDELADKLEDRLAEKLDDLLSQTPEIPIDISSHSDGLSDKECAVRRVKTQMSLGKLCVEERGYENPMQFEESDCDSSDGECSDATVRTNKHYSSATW
Sequence of AURKB (human) (Q96GD4 whole entry, looked up): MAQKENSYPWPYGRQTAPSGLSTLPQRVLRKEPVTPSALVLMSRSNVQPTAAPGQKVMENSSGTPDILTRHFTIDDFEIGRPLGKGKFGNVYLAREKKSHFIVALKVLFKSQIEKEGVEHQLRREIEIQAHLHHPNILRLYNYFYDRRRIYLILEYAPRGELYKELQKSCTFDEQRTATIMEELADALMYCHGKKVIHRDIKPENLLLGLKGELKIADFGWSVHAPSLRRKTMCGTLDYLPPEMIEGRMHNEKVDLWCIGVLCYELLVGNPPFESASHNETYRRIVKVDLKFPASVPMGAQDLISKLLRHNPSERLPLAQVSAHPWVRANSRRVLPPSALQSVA
Sequence of MAP2K7 (human) (O14733 whole entry, looked up): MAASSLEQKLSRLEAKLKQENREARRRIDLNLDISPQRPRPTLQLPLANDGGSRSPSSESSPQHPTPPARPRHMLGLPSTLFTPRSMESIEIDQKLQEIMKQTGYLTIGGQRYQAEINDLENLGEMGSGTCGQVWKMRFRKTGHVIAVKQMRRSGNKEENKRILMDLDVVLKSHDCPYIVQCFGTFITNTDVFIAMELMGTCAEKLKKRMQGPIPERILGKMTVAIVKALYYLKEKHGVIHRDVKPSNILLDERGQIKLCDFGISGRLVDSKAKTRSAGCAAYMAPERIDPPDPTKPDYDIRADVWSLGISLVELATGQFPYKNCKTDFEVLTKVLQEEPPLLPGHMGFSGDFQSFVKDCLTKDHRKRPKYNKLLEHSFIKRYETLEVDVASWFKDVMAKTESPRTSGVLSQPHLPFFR
Sequence of PRKX (human) (P51817 whole entry, looked up): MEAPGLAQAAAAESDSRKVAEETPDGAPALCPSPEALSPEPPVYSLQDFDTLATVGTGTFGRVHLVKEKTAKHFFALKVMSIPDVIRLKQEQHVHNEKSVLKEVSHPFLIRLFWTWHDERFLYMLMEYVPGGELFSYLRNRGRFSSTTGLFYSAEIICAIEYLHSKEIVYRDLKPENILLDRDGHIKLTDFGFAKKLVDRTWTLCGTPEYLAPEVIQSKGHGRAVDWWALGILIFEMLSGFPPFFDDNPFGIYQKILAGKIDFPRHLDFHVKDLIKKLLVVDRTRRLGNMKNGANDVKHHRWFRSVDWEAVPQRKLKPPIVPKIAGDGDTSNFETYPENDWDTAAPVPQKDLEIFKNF
Sequence of AAK1 (human) (Q2M2I8 whole entry, looked up): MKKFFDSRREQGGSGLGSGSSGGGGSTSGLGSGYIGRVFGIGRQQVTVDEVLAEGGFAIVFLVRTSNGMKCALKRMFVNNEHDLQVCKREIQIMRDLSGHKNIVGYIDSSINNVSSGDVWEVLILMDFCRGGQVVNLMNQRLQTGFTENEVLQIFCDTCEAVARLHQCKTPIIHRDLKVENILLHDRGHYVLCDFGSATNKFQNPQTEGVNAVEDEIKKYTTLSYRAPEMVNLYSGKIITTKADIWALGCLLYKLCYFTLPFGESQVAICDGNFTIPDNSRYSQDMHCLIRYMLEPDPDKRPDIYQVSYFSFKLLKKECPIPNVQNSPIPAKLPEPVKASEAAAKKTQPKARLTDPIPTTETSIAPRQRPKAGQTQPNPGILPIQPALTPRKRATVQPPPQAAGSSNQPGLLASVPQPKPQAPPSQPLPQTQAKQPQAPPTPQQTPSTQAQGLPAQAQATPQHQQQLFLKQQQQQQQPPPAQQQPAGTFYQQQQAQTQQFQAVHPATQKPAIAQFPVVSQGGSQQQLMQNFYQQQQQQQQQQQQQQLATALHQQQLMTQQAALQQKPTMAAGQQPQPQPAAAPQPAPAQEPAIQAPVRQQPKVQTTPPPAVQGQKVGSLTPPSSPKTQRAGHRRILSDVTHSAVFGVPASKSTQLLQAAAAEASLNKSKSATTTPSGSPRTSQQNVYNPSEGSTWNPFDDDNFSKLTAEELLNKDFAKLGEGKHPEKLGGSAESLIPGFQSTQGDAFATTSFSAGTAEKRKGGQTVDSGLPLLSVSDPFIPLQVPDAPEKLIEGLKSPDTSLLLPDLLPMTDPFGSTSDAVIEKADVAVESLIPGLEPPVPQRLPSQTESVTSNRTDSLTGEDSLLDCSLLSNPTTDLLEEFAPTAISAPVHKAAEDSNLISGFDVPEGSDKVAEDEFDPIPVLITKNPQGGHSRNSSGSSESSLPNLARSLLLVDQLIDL
Sequence of MAPK4 (human) (P31152 whole entry, looked up): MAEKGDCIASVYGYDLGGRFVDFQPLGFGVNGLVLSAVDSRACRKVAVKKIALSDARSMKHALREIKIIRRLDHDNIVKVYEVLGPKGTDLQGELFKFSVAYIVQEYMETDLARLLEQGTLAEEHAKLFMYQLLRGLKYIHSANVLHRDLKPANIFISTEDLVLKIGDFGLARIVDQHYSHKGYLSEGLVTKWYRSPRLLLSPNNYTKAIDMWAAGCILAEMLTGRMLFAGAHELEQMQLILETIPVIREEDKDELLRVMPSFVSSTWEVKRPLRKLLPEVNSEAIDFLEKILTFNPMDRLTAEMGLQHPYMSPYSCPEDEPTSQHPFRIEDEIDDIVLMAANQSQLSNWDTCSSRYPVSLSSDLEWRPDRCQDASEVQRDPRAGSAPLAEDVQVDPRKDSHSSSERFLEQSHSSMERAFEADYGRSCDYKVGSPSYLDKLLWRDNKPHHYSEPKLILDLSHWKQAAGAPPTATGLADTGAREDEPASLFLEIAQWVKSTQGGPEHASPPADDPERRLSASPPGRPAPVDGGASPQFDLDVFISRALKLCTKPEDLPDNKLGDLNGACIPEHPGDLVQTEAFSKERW
Sequence of ICK (human) (Q9UPZ9 whole entry, looked up): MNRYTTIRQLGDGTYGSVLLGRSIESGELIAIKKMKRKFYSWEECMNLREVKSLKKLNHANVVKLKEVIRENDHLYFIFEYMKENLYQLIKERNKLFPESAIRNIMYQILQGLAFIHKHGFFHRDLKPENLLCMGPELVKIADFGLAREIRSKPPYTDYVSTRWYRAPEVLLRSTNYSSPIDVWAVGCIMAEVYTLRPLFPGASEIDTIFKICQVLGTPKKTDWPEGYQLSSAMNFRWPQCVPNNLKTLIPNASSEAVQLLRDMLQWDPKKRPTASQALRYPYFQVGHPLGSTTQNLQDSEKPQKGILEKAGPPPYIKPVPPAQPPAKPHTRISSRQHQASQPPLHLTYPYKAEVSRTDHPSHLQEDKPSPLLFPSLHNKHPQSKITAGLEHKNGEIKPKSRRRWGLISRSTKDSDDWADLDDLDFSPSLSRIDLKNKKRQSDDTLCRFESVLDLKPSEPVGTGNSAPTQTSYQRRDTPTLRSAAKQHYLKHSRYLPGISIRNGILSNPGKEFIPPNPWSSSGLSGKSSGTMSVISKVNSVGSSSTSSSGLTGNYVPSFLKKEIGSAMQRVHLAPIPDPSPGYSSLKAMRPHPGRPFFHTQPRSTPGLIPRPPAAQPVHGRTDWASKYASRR

CN(C)C/C=C/C(=O)Nc1cccc(C(=O)Nc2ccc(Nc3nccc(-c4c(-c5ccccc5)nn5ccccc45)n3)cc2)c1
kinase still bound, per cent of control (AAK1 (human)): 100%
kinase still bound, per cent of control (ANKK1 (human)): 73%
kinase still bound, per cent of control (AURKB (human)): 85%
kinase still bound, per cent of control (BLK (human)): 5.9%
kinase still bound, per cent of control (CDK14 (human)): 100%
kinase still bound, per cent of control (CDK3 (human)): 100%
kinase still bound, per cent of control (CDK4 CCND3 (human)): 81%
kinase still bound, per cent of control (CDK8 (human)): 100%
kinase still bound, per cent of control (CLK3 (human)): 100%
kinase still bound, per cent of control (CSK (human)): 89%
kinase still bound, per cent of control (EGFR (human)): 1.8%
kinase still bound, per cent of control (EPHB4 (human)): 43%
kinase still bound, per cent of control (ERBB3 (human)): 43%
kinase still bound, per cent of control (ERBB4 (human)): 5.4%
kinase still bound, per cent of control (HUNK (human)): 67%
kinase still bound, per cent of control (ICK (human)): 100%
kinase still bound, per cent of control (IRAK3 (human)): 64%
kinase still bound, per cent of control (KDR (human)): 17%
kinase still bound, per cent of control [1]: 49%
kinase still bound, per cent of control (MAP2K3 (human)): 58%
kinase still bound, per cent of control (MAP2K7 (human)): 89%
kinase still bound, per cent of control (MAP3K10 (human)): 100%
kinase still bound, per cent of control (MAP3K13 (human)): 100%
kinase still bound, per cent of control (MAP4K4 (human)): 9.8%
kinase still bound, per cent of control (MAPK4 (human)): 94%
kinase still bound, per cent of control (MARK2 (human)): 98%
kinase still bound, per cent of control (MET (human)): 55%
kinase still bound, per cent of control (NEK5 (human)): 98%
kinase still bound, per cent of control (NIM1 (human)): 100%
kinase still bound, per cent of control (NTRK3 (human)): 84%
kinase still bound, per cent of control (PDGFRA (human)): 4.4%
kinase still bound, per cent of control (PDPK1 (human)): 100%
kinase still bound, per cent of control (PIK3CB (human)): 100%
kinase still bound, per cent of control (PIK3CD (human)): 95%
kinase still bound, per cent of control (PIP4K2C (human)): 86%
kinase still bound, per cent of control (PKMYT1 (human)): 100%
kinase still bound, per cent of control (PLK2 (human)): 81%
kinase still bound, per cent of control (PRKACB (human)): 83%
kinase still bound, per cent of control (PRKCQ (human)): 28%
kinase still bound, per cent of control (PRKX (human)): 94%
kinase still bound, per cent of control (RPS6KA4 KD2 (human)): 91%
kinase still bound, per cent of control (STK24 (human)): 88%
kinase still bound, per cent of control (TXK (human)): 24%

— the kinase profiling compilation of Christmann-Franck et al. (2016)
